Assay results as given in the supplement of paper PMC8671470.
± gives the standard deviation of the averaged measurements.

Each compound was assayed on HL-60 (assay: cell viability (% survival relative to DMSO control); higher = less cytotoxic). Conditions: 10 µM; 72 h; co-treatment: DMSO vehicle.
Outline: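 Area under the curve, where listed, was derived from four-parameter log-logistic fits with drc and PharmacoGx. These fits used CellTiter-Glo viability from HL-60 cells in RPMI 1640 with 10% FBS, normalised to DMSO wells and wells holding 10 μM proteasome inhibitor. The full library was rescreened on 384-well plates in duplicate at five tenfold concentrations, 1–10,000 nM, with DMSO or 100 nM of one of three metabolic inhibitors, for 72 h at 37 °C, 5% CO2.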

**Q.** For `N=C(N)c1ccc(N=NNc2ccc(C(=N)N)cc2)cc1` [Diminazene], which cell viability is on record?
**A.** 100.7 ± 0.46%

**Q.** Which cell viability does the source give for `OCCN(CCO)c1nc(N2CCCCC2)c2nc(N(CCO)CCO)nc(N3CCCCC3)c2n1` [Dipyridamole] here?
**A.** 106 ± 3.3%

**Q.** With `Cc1cc(O)c2c(c1)C(=O)c1cc(O)cc(O)c1C2=O` [Emodin] as the compound, how does the cell viability read?
**A.** 103.5 ± 0.92%

**Q.** Which cell viability does the source give for `N#Cc1ccc(C2CCCc3cncn32)cc1` (stereo not given) [Fadrozole] here?
**A.** 102.2 ± 0.98%

**Q.** `Cc1nc(-c2ccc(OCC(C)C)c(C#N)c2)sc1C(=O)O` [Febuxostat] was tested. Which cell viability did it give?
**A.** 104.8 ± 0.8%

Same assay, conditions: 10 µM; 72 h; co-treatment: GSK2194069 100 nM

**Q.** `CN(C)CCNC(=O)c1cccn2c(=O)c3cc4ccccc4cc3nc12` [Bmh-21] was tested. Which cell viability did it give?
**A.** 66 ± 8.9%

**Q.** Which cell viability does the source give for `C=C1C(=O)O[C@H](CCCCCCCC)[C@H]1C(=O)O` [C75] here?
**A.** 111 ± 4%

**Q.** `O=C(Cc1cccc(OC(F)(F)F)c1)Nc1ccc(CCCCc2nnc(NC(=O)Cc3ccccn3)s2)nn1` [CB-839] was tested. Which cell viability did it give?
**A.** 77.9 ± 1.9%

**Q.** Which cell viability does the source give for `O=NN(CCCl)C(=O)NCCCl` [Carmustine] here?
**A.** 104 ± 9.1%

**Q.** `O[C@H]1[C@H](O)[C@@H](O)CN2CC[C@H](O)[C@H]12` [Castanospermine] was tested. Which cell viability did it give?
**A.** 99.09 ± 0.95%

**Q.** For `O=C(/C=C/c1cccnc1)NCCCCC1CCN(C(=O)c2ccccc2)CC1` [Daporinad], which cell viability is on record?
**A.** 1.09 ± 0.17%

**Q.** With `N=C(N)c1ccc(N=NNc2ccc(C(=N)N)cc2)cc1` [Diminazene] as the compound, how does the cell viability read?
**A.** 101.5 ± 0.3%

**Q.** Which cell viability does the source give for `OCCN(CCO)c1nc(N2CCCCC2)c2nc(N(CCO)CCO)nc(N3CCCCC3)c2n1` [Dipyridamole] here?
**A.** 64 ± 5.3%

**Q.** Which cell viability does the source give for `Cc1cc(O)c2c(c1)C(=O)c1cc(O)cc(O)c1C2=O` [Emodin] here?
**A.** 96.7 ± 1.6%

**Q.** `N#Cc1ccc(C2CCCc3cncn32)cc1` (stereo not given) [Fadrozole] was tested. Which cell viability did it give?
**A.** 100 ± 1.6%

**Q.** How did the cell viability turn out when `Cc1nc(-c2ccc(OCC(C)C)c(C#N)c2)sc1C(=O)O` [Febuxostat] was run?
**A.** 98.7 ± 3.6%

Same assay, conditions: 10 µM; 72 h; co-treatment: pictilisib 100 nM

**Q.** How did the cell viability turn out when `CN(C)CCNC(=O)c1cccn2c(=O)c3cc4ccccc4cc3nc12` [Bmh-21] was run?
**A.** 73.8 ± 2.8%

**Q.** Which cell viability does the source give for `C=C1C(=O)O[C@H](CCCCCCCC)[C@H]1C(=O)O` [C75] here?
**A.** 98.9 ± 3.6%

**Q.** For `O=C(Cc1cccc(OC(F)(F)F)c1)Nc1ccc(CCCCc2nnc(NC(=O)Cc3ccccn3)s2)nn1` [CB-839], which cell viability is on record?
**A.** 54 ± 1.8%

**Q.** `O=NN(CCCl)C(=O)NCCCl` [Carmustine] was tested. Which cell viability did it give?
**A.** 118 ± 24%

**Q.** Which cell viability does the source give for `O[C@H]1[C@H](O)[C@@H](O)CN2CC[C@H](O)[C@H]12` [Castanospermine] here?
**A.** 99.9 ± 2.1%

**Q.** How did the cell viability turn out when `O=C(/C=C/c1cccnc1)NCCCCC1CCN(C(=O)c2ccccc2)CC1` [Daporinad] was run?
**A.** 2.01 ± 1.5%

**Q.** Which cell viability does the source give for `N=C(N)c1ccc(N=NNc2ccc(C(=N)N)cc2)cc1` [Diminazene] here?
**A.** 104 ± 4.4%

**Q.** How did the cell viability turn out when `OCCN(CCO)c1nc(N2CCCCC2)c2nc(N(CCO)CCO)nc(N3CCCCC3)c2n1` [Dipyridamole] was run?
**A.** 97.4 ± 1.1%

**Q.** For `Cc1cc(O)c2c(c1)C(=O)c1cc(O)cc(O)c1C2=O` [Emodin], which cell viability is on record?
**A.** 97.6 ± 2.7%

**Q.** With `N#Cc1ccc(C2CCCc3cncn32)cc1` (stereo not given) [Fadrozole] as the compound, how does the cell viability read?
**A.** 107 ± 15%

**Q.** With `Cc1nc(-c2ccc(OCC(C)C)c(C#N)c2)sc1C(=O)O` [Febuxostat] as the compound, how does the cell viability read?
**A.** 96 ± 4.1%

What follows are compounds tested on THP-1 (assay: cell viability (% survival relative to DMSO control, bortezomib = 0%); higher = less cytotoxic). Conditions: 1 nM; 72 h.
Outline: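 Fifteen myeloid leukaemia cell lines were exposed to compounds at 1, 10, 100, 1000 or 10000 nM in 384-well plates for 72 h at 37 °C and 5% CO2. Viability was read by CellTiter-Glo luminescence and normalised, with vehicle as 100% and a 10 µM positive control as 0%. Values are percent survival averaged over duplicates.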

**Q.** With `CN(C)CCNC(=O)c1cccn2c(=O)c3cc4ccccc4cc3nc12` [Bmh-21] as the compound, how does the cell viability read?
**A.** 102%

**Q.** For `C=C1C(=O)O[C@H](CCCCCCCC)[C@H]1C(=O)O` [C75], which cell viability is on record?
**A.** 111%

**Q.** Which cell viability does the source give for `O=C(Cc1cccc(OC(F)(F)F)c1)Nc1ccc(CCCCc2nnc(NC(=O)Cc3ccccn3)s2)nn1` [CB-839] here?
**A.** 99.4%

**Q.** For `O=NN(CCCl)C(=O)NCCCl` [Carmustine], which cell viability is on record?
**A.** 97.6%

**Q.** `O[C@H]1[C@H](O)[C@@H](O)CN2CC[C@H](O)[C@H]12` [Castanospermine] was tested. Which cell viability did it give?
**A.** 91.9%

**Q.** For `O=C(/C=C/c1cccnc1)NCCCCC1CCN(C(=O)c2ccccc2)CC1` [Daporinad], which cell viability is on record?
**A.** 85.6%

**Q.** How did the cell viability turn out when `N=C(N)c1ccc(N=NNc2ccc(C(=N)N)cc2)cc1` [Diminazene] was run?
**A.** 105%

**Q.** `OCCN(CCO)c1nc(N2CCCCC2)c2nc(N(CCO)CCO)nc(N3CCCCC3)c2n1` [Dipyridamole] was tested. Which cell viability did it give?
**A.** 96.6%

**Q.** For `Cc1cc(O)c2c(c1)C(=O)c1cc(O)cc(O)c1C2=O` [Emodin], which cell viability is on record?
**A.** 90.6%

**Q.** For `N#Cc1ccc(C2CCCc3cncn32)cc1` (stereo not given) [Fadrozole], which cell viability is on record?
**A.** 99.6%

**Q.** Which cell viability does the source give for `Cc1nc(-c2ccc(OCC(C)C)c(C#N)c2)sc1C(=O)O` [Febuxostat] here?
**A.** 102%

Same assay, conditions: 10 nM; 72 h

**Q.** For `CN(C)CCNC(=O)c1cccn2c(=O)c3cc4ccccc4cc3nc12` [Bmh-21], which cell viability is on record?
**A.** 96.4%

**Q.** With `C=C1C(=O)O[C@H](CCCCCCCC)[C@H]1C(=O)O` [C75] as the compound, how does the cell viability read?
**A.** 94.7%

**Q.** How did the cell viability turn out when `O=C(Cc1cccc(OC(F)(F)F)c1)Nc1ccc(CCCCc2nnc(NC(=O)Cc3ccccn3)s2)nn1` [CB-839] was run?
**A.** 96.7%

**Q.** `O=NN(CCCl)C(=O)NCCCl` [Carmustine] was tested. Which cell viability did it give?
**A.** 107%

**Q.** For `O[C@H]1[C@H](O)[C@@H](O)CN2CC[C@H](O)[C@H]12` [Castanospermine], which cell viability is on record?
**A.** 105%

**Q.** How did the cell viability turn out when `O=C(/C=C/c1cccnc1)NCCCCC1CCN(C(=O)c2ccccc2)CC1` [Daporinad] was run?
**A.** 120%

**Q.** Which cell viability does the source give for `N=C(N)c1ccc(N=NNc2ccc(C(=N)N)cc2)cc1` [Diminazene] here?
**A.** 99.7%

**Q.** Which cell viability does the source give for `OCCN(CCO)c1nc(N2CCCCC2)c2nc(N(CCO)CCO)nc(N3CCCCC3)c2n1` [Dipyridamole] here?
**A.** 100%

**Q.** Which cell viability does the source give for `Cc1cc(O)c2c(c1)C(=O)c1cc(O)cc(O)c1C2=O` [Emodin] here?
**A.** 97.3%

**Q.** `N#Cc1ccc(C2CCCc3cncn32)cc1` (stereo not given) [Fadrozole] was tested. Which cell viability did it give?
**A.** 96.3%

**Q.** `Cc1nc(-c2ccc(OCC(C)C)c(C#N)c2)sc1C(=O)O` [Febuxostat] was tested. Which cell viability did it give?
**A.** 92.4%

Same assay, conditions: 100 nM; 72 h

**Q.** `CN(C)CCNC(=O)c1cccn2c(=O)c3cc4ccccc4cc3nc12` [Bmh-21] was tested. Which cell viability did it give?
**A.** 104%

**Q.** `C=C1C(=O)O[C@H](CCCCCCCC)[C@H]1C(=O)O` [C75] was tested. Which cell viability did it give?
**A.** 111%

**Q.** For `O=C(Cc1cccc(OC(F)(F)F)c1)Nc1ccc(CCCCc2nnc(NC(=O)Cc3ccccn3)s2)nn1` [CB-839], which cell viability is on record?
**A.** 88.9%

**Q.** With `O=NN(CCCl)C(=O)NCCCl` [Carmustine] as the compound, how does the cell viability read?
**A.** 102%

**Q.** Which cell viability does the source give for `O[C@H]1[C@H](O)[C@@H](O)CN2CC[C@H](O)[C@H]12` [Castanospermine] here?
**A.** 101%

**Q.** Which cell viability does the source give for `O=C(/C=C/c1cccnc1)NCCCCC1CCN(C(=O)c2ccccc2)CC1` [Daporinad] here?
**A.** 102%

**Q.** For `N=C(N)c1ccc(N=NNc2ccc(C(=N)N)cc2)cc1` [Diminazene], which cell viability is on record?
**A.** 107%

**Q.** How did the cell viability turn out when `OCCN(CCO)c1nc(N2CCCCC2)c2nc(N(CCO)CCO)nc(N3CCCCC3)c2n1` [Dipyridamole] was run?
**A.** 107%

**Q.** `Cc1cc(O)c2c(c1)C(=O)c1cc(O)cc(O)c1C2=O` [Emodin] was tested. Which cell viability did it give?
**A.** 106%

**Q.** `N#Cc1ccc(C2CCCc3cncn32)cc1` (stereo not given) [Fadrozole] was tested. Which cell viability did it give?
**A.** 96.2%

**Q.** Which cell viability does the source give for `Cc1nc(-c2ccc(OCC(C)C)c(C#N)c2)sc1C(=O)O` [Febuxostat] here?
**A.** 95.1%

Same assay, conditions: 1000 nM; 72 h

**Q.** With `CN(C)CCNC(=O)c1cccn2c(=O)c3cc4ccccc4cc3nc12` [Bmh-21] as the compound, how does the cell viability read?
**A.** 45.1%

**Q.** With `C=C1C(=O)O[C@H](CCCCCCCC)[C@H]1C(=O)O` [C75] as the compound, how does the cell viability read?
**A.** 108%

**Q.** With `O=C(Cc1cccc(OC(F)(F)F)c1)Nc1ccc(CCCCc2nnc(NC(=O)Cc3ccccn3)s2)nn1` [CB-839] as the compound, how does the cell viability read?
**A.** 82.9%

**Q.** With `O=NN(CCCl)C(=O)NCCCl` [Carmustine] as the compound, how does the cell viability read?
**A.** 101%

**Q.** With `O[C@H]1[C@H](O)[C@@H](O)CN2CC[C@H](O)[C@H]12` [Castanospermine] as the compound, how does the cell viability read?
**A.** 96.9%
